Data published in patent US20040014777A1, “Remedies for retinal nerve diseases containing 1,2-ethanediol derivatives or salts thereof” (Toyama Chemical Co., LTD., priority 2000, published 2004).

Experiments:
[1] = test system: neuron cell death caused by amyloid β-protein; details: Society for Neuroscience Abstracts Vol. 24, 1998; cited from earlier work
retinal ganglion cells [2] = test: Protective effect on retinal ganglion cells in a retinal ischemia-reperfusion rat model; format: in vivo, SD rats; details: fourteen days after retinal ischemia-reperfusion, n=8, control group 40%
Protocol: 2. Protective Effect on Retinal Ganglion Cells in a Retinal Ischemia-Reperfusion Rat Model
As a retinal ischemia-reperfusion model, the manner in Steven Roth et al. (Experimental Eye Research, Vol. 65, Pages 771-779, 1997) was used with partial modification.
As the test animals, SD rats (Japan SLC), 9 weeks old (body weight: about 300 g) were used. The operation was carried out under a halothane-anesthetized condition (introduction 5%, maintenance 2%). First, the animal was fixed on the table in a lateral decubitus, and the middle part of the skin between the external auditory canal and the external ocular angle was incised. After peeling off the temporal muscle from the cranium, the tissues surrounding the optic nerve were peeled off to expose the optic nerve. The retina central vessels were ligated together with the optic nerve with a 4-0 silk thread so as to avoid the damage of optic nerve. Thirty minutes after, the silk thread was released to reperfuse the blood flow. T-588 was orally administered 30 minutes before the ischemic treatment and just after the reperfusion. From the day next to the operation, T-588 was orally administered twice a day. […] The number of retinal ganglion cells was counted in the two region from the optic disk to 0.5 mm distant point and a ratio of the number of neurons in the ischemic eye to that in the normal eye was calculated on each individual. […]

nerve growth factor = details: WO96/12717; cited from earlier work
retinal ganglion cells [3] = test: Protective effect on retinal ganglion cells in a glaucoma model (India ink injection and angle photocoagulation); format: in vivo, Wistar white rats; details: T-588 100 mg/kg orally
Source text: 1. Protective Effect on Retinal Ganglion Cells in a Glaucoma Model
Wistar white rats [male, body weight 290-310 g] were subjected to a general anesthesia by intraperitoneal injection of ketamine hydrochloride and xylazine hydrochloride. Subsequently, the rats were subjected to an instillation anesthesia with oxybuprocaine hydrochloride. After the measuring both the intraocular pressures with a pneumatonometer (Model Classic 30:Mentor, Norwell, Mass., U.S.A.), the anterior chamber of the right eye was punctured with a 30-gage needle to aspirate the aqueous humor, and then about 30 μL of 35% India ink was injected thereinto. […]
Immediately after the coagulation, ophthalmoscopy was performed in all the animals in order to confirm the occlusion of retina central artery. Five days after the angle photocoagulation, the intraocular pressure was measured to confirm an elevation of the intraocular pressure in the right eye. […] From the fluorescent microscopic photographs, the number of labeled cell was counted by means of an image analyzer. The labeling rate of retinal ganglion cell was calculated as a ratio of the number of labeled ganglion cells in the right eye to the number of labeled ganglion cells in the control eye (left eye).
On the eighth day from the angle photocoagulation, the number of alive retinal ganglion cells was counted and compared with that of a normal eye. […]

## CCN(CC)CCOC[C@H](O)c1ccc2sccc2c1.Cl [T-588, (R)-1-(benzo[b]thiophen-5-yl)-2-[2-(N,N-diethylamino)ethoxy]ethanol hydrochloride]
[1]
  effect against neuron cell death caused by amyloid β-protein: protective effects
Retinal ganglion cells [2]; T-588 10 mg/kg orally twice a day
  survival rate of retinal ganglion cells (tested eye compared with normal eye): 57%
Retinal ganglion cells [2]; T-588 30 mg/kg orally twice a day
  survival rate of retinal ganglion cells (tested eye compared with normal eye): 70%
Nerve growth factor
  effect on nerve growth factor activity: nerve growth factor activity-improving effect
Retinal ganglion cells [3]; eighth day from angle photocoagulation, n=9, control group 78%
  survival rate of retinal ganglion cells (tested eye compared with normal eye): 91%
Retinal ganglion cells [3]; glaucoma model rats
  influence on the elevation of intraocular pressure: no influence
